# Key:
# [1] = Calcein leakage from large unilamellar vesicles; settings: vesicles of 100 nm, DOPE/DOPG=3/1
# Description: FIG. 20 refers to a graph showing calcein leakage of LC100 and LC101 using large unilamellar vesicles of 100 nm. The lipid composition of the vesicle is DOPE/DOPG=3/1, mimicking the bacterial inner membrane. […] Further increase of LC100 or LC101 leads to decrease in the florescence because of a fluorescence quenching effect.
# [2] = test system: colistin resistant MCR (−) E. Coli strains; assay: MIC, broth microdilution, compound alone; format: cell-based
# Procedure, shortened: (§1)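 Wells held ~5×10^5 CFU/mL of bacteria prepared to 0.5 McFarland from overnight TSA colonies and exposed to serially diluted agents, following modified CLSI microdilution. After 24 h at 35 °C, growth judged by turbidity (OD600 possible); 99% inhibition sets the MIC.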
# [3] = test system: colistin resistant MCR (+) E. Coli strains; assay: MIC, broth microdilution, compound alone; format: cell-based; settings: compound alone
# Procedure, shortened: as §1
# [4] = test system: colistin resistant MCR (−) E. Cloacae strain 7023456439; assay: MIC, broth microdilution, compound alone; format: cell-based; settings: strain 7023456439 E. Cloacae
# Procedure, shortened: as §1
# [5] = test system: 6083655967 [MCR 1+; E.Coli]; assay: Synergistic study between LC100 or LC101 with B2088; format: cell-based; settings: for Combination MIC: strain 6083655967, value of each component
# Experimental: The MICs of the individual drugs and LC compound in combinations were determined using the broth microdilution technique as recommended by the CLSI whereby the two anti-microbial agents were added in an equal amount. (e.g.: 50 μL of Colistin: 50 μL of LC compounds). Diluted media containing compounds and antibiotics will be serially diluted 2-fold, and LC compounds and antibiotics alone or in combination will be assayed at fixed synergy concentration. In all cases, the lowest concentration at which no visible growth occurred was be recorded to be the MIC value of individual and combined antibacterial agents. The results were obtained after 24 hours of incubation.
# Using the combination of LC100 and colistin, the activity of a broad range of strains was further tested (Table 7).
# [6] = test system: Gram positive bacteria (SA and MRSA strains); assay: Antimicrobial effect on Gram positive bacteria (Table 8); format: cell-based; design: key to antimicrobial effect on Gram positive bacteria: MIC (concentration giving 99% inhibition), concentrations in μg; settings: compound alone
# Experimental: MIC experiments of the antimicrobial agents were determined by a modified broth microdilution method in accordance with the Clinical and Laboratory Standards Institute (CLSI) guidelines using 96 well culture plates. In brief, serial dilutions of all plates were prepared at different concentrations (μg). The inoculum suspension was prepared by adding isolated colonies from a 18-20 hours on TSA plate into phosphate buffer (0.31 mM, pH 7.2) or in water for injection (BBraun) and adjusting the suspension to a turbidity equivalent to 0.5 McFarland Standard. Each well contained a final bacterial concentration of approximately 5×10^5 colony forming units (CFU)/mL. The plate was covered and incubated at 35° C. for 24 hours. […] For the microdilution plates, turbidity in wells can be measured at OD600 using TECAN infinite M200Pro. MIC was determined as […] concentration that gives a 99 percent inhibition.
# The antimicrobial activity of the inventive combination was also tested against Gram positive bacteria, including the multi-drug resistant strains, such as MRSA. […] This means the combination of LC100/LC101 with colistin has broad antimicrobial spectrum, being active against both Gram positive and Gram negative bacteria.
# [7] = test system: colistin resistant MCR (−) E. Coli strains; assay: Synergy study: colistin MIC in the presence of compound; format: cell-based; settings: compound at 10 μg (Table 2a: 10 ug/ml)
# Procedure, shortened: (§2)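 After 24 hours, MIC was read as the lowest concentration without visible growth. Drugs were tested singly and in combination by CLSI broth microdilution, equal-amount colistin:LC compound mixtures serially diluted 2-fold at a fixed synergy concentration.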
# [8] = test system: colistin resistant MCR (+) E. Coli strains; assay: as above; format: cell-based; settings: against mcr-1 bacteria; in words
# Procedure, shortened: as §2
# [9] = test system: colistin resistant MCR (−) E. Cloacae strain 7023456439; assay: as above; format: cell-based; settings: strain 7023456439 E. Cloacae, compound at 10 μg (Table 2a: 10 ug/ml)
# Procedure, shortened: as §2
smiles,measurement,setting,value
COC(=O)C(CCCNC(=N)N)NC(=O)COc1ccc(/C=C/C(=O)c2ccc(OCC(=O)NC(CCCNC(=N)N)C(=O)OC)c(CC=C(C)C)c2O)cc1 (stereo not drawn) [LC101],calcein leakage / disruption of vesicles,[1],significant florescence was detected
same,MIC,"[2]; strain 6083672926, MCR (−)",25 µg/mL
same,MIC,"[2]; strain 7023446108, MCR (−)",25 µg/mL
same,MIC,"[2]; strain 7033607097, MCR (−)",50 µg/mL
same,MIC,"[3]; strain 6075066346, MCR (+)",25 µg/mL
same,MIC,"[3]; strain 6083655967, MCR (+)",25 µg/mL
same,MIC,"[3]; strain 6103645107, MCR (+)",25 µg/mL
same,MIC,"[3]; strain 6123520276, MCR (+)",50 µg/mL
same,MIC,"[3]; strain 7013177695, MCR (+)",25 µg/mL
same,MIC,"[3]; strain 7023436560, MCR (+)",25 µg/mL
same,MIC,"[3]; strain 7023444207, MCR (+)",25 µg/mL
same,MIC,[4],>50 µg/mL
same,Combination MIC,[5]; combination B2088 (Ac) + LC 101,2 µg/mL
same,Combination MIC,[5]; combination B2088 + LC 101,2 µg/mL
same,level of synergistic effect with B2088,[5]; killing E. coli with the mcr-1 mutation,1 µg/mL
same,activity against Gram positive strains,[6]; in words,good activity
same,antimicrobial effect on Gram positive bacteria,[6]; strain MRSA ATCC 43300,6.25
same,antimicrobial effect on Gram positive bacteria,[6]; strain MRSA ATCC 700699,6.25
same,antimicrobial effect on Gram positive bacteria,[6]; strain MRSA DM 21455,3.125
same,antimicrobial effect on Gram positive bacteria,[6]; strain SA ATCC 6538,3.125
same,antimicrobial effect on Gram positive bacteria,[6]; strain SA ATCC 29213,3.125
same,antimicrobial effect on Gram positive bacteria,[6]; strain SA DM 4400R,3.125
same,Colistin MIC in the presence of the compound,"[7]; strain 6083672926, MCR(−)",<0.195 µg/mL
same,Colistin MIC in the presence of the compound,"[7]; strain 7023446108, MCR(−)",<0.195 µg/mL
same,Colistin MIC in the presence of the compound,"[7]; strain 7033607097, MCR(−)",<0.195 µg/mL
same,synergy with colistin,[8],excellent synergy
same,Colistin MIC in the presence of the compound,[9],>12.5 µg/mL

# Reference: US12473250B2, “Molecular design of new antibiotics and antibiotic adjuvants against MCR strains” (priority 2019, dated 2025)
